According to ChEMBL document CHEMBL5247668, “Design, synthesis and biological evaluation of novel indole-3-carboxylic acid derivatives with antihypertensive activity” (Bioorg Med Chem Lett, 2023):
Calls of active or inactive are those of the source. The rule behind the calls is not given here.

What was measured:
[1] = target: T1, Type-1 angiotensin II receptor (Homo sapiens, UniProt P30556); experiment: Displacement of [125I]-Angiotensin II from Angiotensin II type-1 receptor in VSMC cells (unknown origin) by competition radioligand binding assay; type: cell-based
T1 sequence (P30556 whole entry): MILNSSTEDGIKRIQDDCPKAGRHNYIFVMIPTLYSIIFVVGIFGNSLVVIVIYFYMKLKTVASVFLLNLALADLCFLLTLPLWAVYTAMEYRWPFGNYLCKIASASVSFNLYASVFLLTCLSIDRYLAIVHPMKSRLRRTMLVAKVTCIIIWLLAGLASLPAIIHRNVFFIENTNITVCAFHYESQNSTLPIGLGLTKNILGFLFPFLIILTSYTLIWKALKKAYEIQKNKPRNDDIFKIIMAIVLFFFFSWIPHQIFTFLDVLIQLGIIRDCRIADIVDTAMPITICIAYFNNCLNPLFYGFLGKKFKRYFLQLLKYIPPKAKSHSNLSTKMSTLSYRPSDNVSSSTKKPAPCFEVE

[2] = target: T1, Type-1 angiotensin II receptor; experiment: Displacement of [125I]-Angiotensin II from Angiotensin II type-1 receptor in VSMC cells (unknown origin) assessed as inhibition constant by competition radioligand binding assay; type: cell-based
[3] = system: Rattus norvegicus; experiment: Antihypertensive activity in spontaneously hypertensive rat assessed as decrease in blood pressure at 5 to 10 mg/kg, po; type: functional, organism-based; conditions: dose 5-10 mg/kg
[4] = system: Rattus norvegicus; experiment: Antihypertensive activity in spontaneously hypertensive rat assessed as decrease in maximal mean blood pressure at 10 mg/kg, po; type: functional
[5] = Cmax in spontaneously hypertensive Wistar rat at 10 mg/kg, po; type: ADME, organism-based; design: dose 10 mg/kg, route po; conditions: in vivo
[6] = Tmax in spontaneously hypertensive Wistar rat at 10 mg/kg, po; type: ADME, organism-based; conditions: in vivo
[7] = Half life in spontaneously hypertensive Wistar rat at 10 mg/kg, po; type: ADME, organism-based; conditions: in vivo
[8] = AUC (0 to 72 hrs) in spontaneously hypertensive Wistar rat at 10 mg/kg, po; type: ADME, organism-based; design: dose 10 mg/kg, route po; conditions: in vivo
[9] = AUC (0 to infinity) in spontaneously hypertensive Wistar rat at 10 mg/kg, po; type: ADME, organism-based; design: dose 10 mg/kg, route po; conditions: in vivo
[10] = MRT (0 to 72 hrs) in spontaneously hypertensive Wistar rat at 10 mg/kg, po; type: ADME, organism-based; conditions: in vivo
[11] = MRT (0 to infinity) in spontaneously hypertensive Wistar rat at 10 mg/kg, po; type: ADME, organism-based; conditions: in vivo
[12] = system: Rattus norvegicus; experiment: Antihypertensive activity in spontaneously hypertensive rat assessed as decrease in maximal mean blood pressure at 10 mg/kg, po measured for 24 hrs; type: functional, organism-based

Row | IC50 [1] | Ki [2] | SMILES | Activity [3] | further results
1 | 0.0222 µM | 0.0219 µM | CCCCc1c(C(=O)O)c2ccccc2n1C(=O)c1ccccc1 | Active | 
2 | 0.0224 µM | 0.0217 µM | Cc1ccc(S(=O)(=O)n2c(COCc3ccccc3)c(C(=O)O)c3ccccc32)cc1 | Active | 
3 | 0.0311 µM | 0.0308 µM | O=C(O)c1c(CO)n(C(=O)c2ccccc2)c2ccccc12 | Active | 
4 | 0.0322 µM | 0.0314 µM | O=C(O)c1c(COCc2ccccc2)n(C(=O)c2ccccc2)c2ccccc12 | Active | 
5 | 0.0255 µM | 0.0247 µM | CS(=O)(=O)n1c(COCc2ccccc2)c(C(=O)O)c2ccccc21 | Active | 
6 | 0.0283 µM | 0.0273 µM | CCCCc1c(C(=O)O)c2ccccc2n1S(=O)(=O)c1ccc(C)cc1 | Active | 
7 | 0.0292 µM | 0.0286 µM | CCCCc1c(C(=O)O)c2ccccc2n1S(C)(=O)=O | Active | 
8 | 0.0123 µM | 0.011 µM | O=C(O)c1c(-c2ccccc2)n(C(=O)c2ccccc2)c2ccccc12 | Active | Activity [4]: 48.6 mmHg; Cmax [5]: 0.0181 µg/mL; Tmax [6]: 2.7 h; half-life [7]: 19.9 h; AUC(0-t) [8]: 0.253 µg·h/mL; AUC(0-inf) [9]: 0.261 µg·h/mL; MRT last [10]: 20.2 h; MRT inf [11]: 30.3 h; Activity [12]: Active
9 | 0.018 µM | 0.0164 µM | Cc1ccc(S(=O)(=O)n2c(-c3ccccc3)c(C(=O)O)c3ccccc32)cc1 | Active | 
10 | 0.0113 µM | 0.0108 µM | CS(=O)(=O)n1c(-c2ccccc2)c(C(=O)O)c2ccccc21 | Active | Activity [4]: 46.3 mmHg; Activity [12]: Active
11 | 0.0271 µM | 0.0263 µM | CS(=O)(=O)n1c(CO)c(C(=O)O)c2ccccc21 | Active | 
12 |  |  | CCCCc1nc(Cl)c(CO)n1Cc1ccc(-c2ccccc2-c2nnn[nH]2)cc1 [LOSARTAN] |  | Activity [4]: 42.5 mmHg
13 | 0.0242 µM | 0.0233 µM | Cc1ccc(S(=O)(=O)n2c(CO)c(C(=O)O)c3ccccc32)cc1 | Active | 
